Reference: BindingDB's records for doi:10.1021/acsmedchemlett.9b00381 (Dana-Farber Cancer Institute, 2019)
pIC50: −log10 of the molar value.

Tests used:
[1] = Inhibition of EGFR double T790M/L858R mutant (unknown origin) expressed in mouse Ba/F3 cells assessed as reduction in cell growth incubated for 72 hrs in presence of 1 ug/ml Cetuximab by celltiter-glo luminescent cell viability assay
[2] = Inhibition of EGFR L858R mutant (unknown origin) expressed in mouse Ba/F3 cells assessed as reduction in cell growth incubated for 72 hrs in presence of 1 ug/ml Cetuximab by celltiter-glo luminescent cell viability assay
[3] = Inhibition of EGFR triple T790M/L858R/C797S mutant (unknown origin) expressed in mouse Ba/F3 cells assessed as reduction in cell growth incubated for 72 hrs in presence of 1 ug/ml Cetuximab by celltiter-glo luminescent cell viability assay
[4] = Inhibition of EGFR (unknown origin) expressed in mouse Ba/F3 cells assessed as reduction in cell growth incubated for 72 hrs in presence of 1 ug/ml Cetuximab by celltiter-glo luminescent cell viability assay

Row | Structure (SMILES) | pIC50 [1] | pIC50 [2] | pIC50 [3] | pIC50 [4]
1 | CN1CCN(c2ccc(Oc3ccc4c(c3)C(=O)N(Cc3ccccc3)c3cc(F)ccc3N4)cc2)CC1 | 6.44 | 5.57 | 6.70 | 5.49
2 | O=C1c2cc(-c3ccc(N4CCNCC4)cc3)ccc2Nc2ccc(F)cc2N1Cc1ccccc1 | 6.11 | 5.43 | 6.03 | 5.39
